{
  "source": "patent CN114794330A",
  "about": "“一种调节水生动物活力状态的功能性调理剂及其制备方法” (Nori Shanghai Bioengineering Co ltd, priority 2022, dated 2022)",
  "origin": "cited, not measured here",
  "data": [
    {"smiles": "NCCS(=O)(=O)O", "note": "[牛磺酸, 2-氨基乙磺酸]", "values": [
      {"measurement": "solubility in 95% ethanol", "setting": "95% ethanol, 17℃", "value": 0.004, "unit": "%"},
      {"measurement": "solubility in acetone", "setting": "acetone", "value": "不溶"},
      {"measurement": "solubility in anhydrous ethanol", "setting": "anhydrous ethanol", "value": "不溶"},
      {"measurement": "solubility in diethyl ether", "setting": "diethyl ether", "value": "不溶"},
      {"measurement": "solubility in water", "setting": "water, 12℃", "value": 0.5, "unit": "%"}
    ]}
  ]
}
